Marks after values point to notes of the source that are not given here.
What was measured:
JeKo-1 cells = assay: Tumor cell growth inhibition by MTS method, JeKo-1; type: cell-based; settings: 5 days of culture; for IC50 / inhibition at 10 µM: Homo sapiens, JeKo-1, 120 h; for inhibition at 10 µM: read-out: cell growth inhibition rate of compounds at 10 μM
Method: III. Determination of IC50 Value of Compound for Inhibiting Tumor Cell Growth by MTS Method
1. Cell plating: cells in logarithmic growth phase were counted and inoculated in a 96-well plate (20000 cells per well).
2. Administrating agent to cell: 10 mM compound mother solution in DMSO was subjected to 3 fold-gradient dilution, to set 8 concentrations, which were then added to various wells, with three replicates for each concentration, and three blank wells (only culture medium) and three negative controls (containing 0.1% DMSO) on each plate.
3. […] The OD value at 490 nm was measured with microplate reader OD490. The cell growth inhibition rate was calculated by the following formula: Cell growth inhibition rate %=1−(ODexperimental group−ODblank group)/(ODnegative group−ODblank group)×100%
The semi-inhibitory concentration IC50 of the compound acting on cell growth was calculated using GradPad Prism 5 software according to the measured cell growth inhibition rate.
In the following table it lists the IC50 value or the inhibition rates of some compounds at 10 μM against JeKo-1 cells

MDA-MB-231 cells = assay: Vacuolation of MDA-MB-231 cells caused by inhibition of compounds on PIKfyve (microscopy); type: cell-based; settings: MDA-MB-231 cells
From the text: I. Determination of Vacuolation of MDA-MB-231 Cells Caused by Inhibition of Compounds on PIKfyve
When the activity of pikfyve kinase is inhibited, vacuoles will be produced in cytoplasm. By observing the number of vacuoles under a microscope, the ability of compounds to inhibit the activity of pikfyve kinase can be known.
1. Cell plating: cells in logarithmic growth phase were made into a single cell suspension, counted with a cell counter and diluted to a cell concentration of about 2×10^5/mL. Then, the cells were inoculated into a 12-well plate, and cultured in a 37° C., 5% CO2 incubator.
3. Vacuolation test: after 24 and 48 hours of culture, photos were taken under an […] to observe the degree of vacuolation.
(In the table, “+” represents the degree of vacuolation; more “+” indicates more obvious vacuolation; “−” represents no vacuolation)

| Structure (SMILES) | IC50 (JeKo-1 cells) | degree of vacuolation, 1 μM, 24 h (MDA-MB-231 cells) | degree of vacuolation, 1 μM, 48 h (MDA-MB-231 cells) | degree of vacuolation, 10 μM, 24 h (MDA-MB-231 cells) | degree of vacuolation, 10 μM, 48 h (MDA-MB-231 cells) | inhibition at 10 µM (JeKo-1 cells) | cell growth inhibition rate of compounds at 10 μM (JeKo-1 cells) |
| --- | --- | --- | --- | --- | --- | --- | --- |
| Cc1ccc(C(=O)Nc2cccc(C(F)(F)F)c2)cc1Nc1cc(-c2cccnc2)nc2sccc12 [VIII-a-7] | 3.17 µM | ++ | ++ | +++ | +++ |  |  |
| Cc1ccc(Nc2nc(-c3cccc(NC(=O)c4ccc(N)nc4)c3)nc3ccsc23)nc1 [VII-a-17] | 1.15 µM | − | − | − | − |  |  |
| Cc1ccc(C(=O)Nc2cccc(C(F)(F)F)c2)cc1Nc1nc(-c2cccnc2)nc2c1cnn2C [III-b-1] | 0.939 µM | + | ++ | + | ++ |  |  |
| Cc1ccc(C(=O)Nc2cccc(C(F)(F)F)c2)cc1Nc1nc(-c2cccc(Cl)c2)nc2c1cnn2C [III-b-3] | 4.86 µM | − |  | − |  |  |  |
| O=C(Nc1cccc(C(F)(F)F)c1)c1cccc(Nc2cc(-c3cccnc3)nc3sccc23)c1 [VIII-a-5] | 5.14 µM | − | + | + | + |  |  |
| Cc1ccc(NC(=O)c2cccc(C(F)(F)F)c2)cc1Nc1nc(-c2cccnc2)cn2c(C)cnc12 [VI-b-7] |  | − | − | + | + | 16.5% |  |
| Cc1ccc(C(=O)Nc2cccc(C(F)(F)F)c2)cc1Nc1nc(-c2ccncc2)nc2[nH]ccc12 [II-a-4] |  | − | − | + | + | 18.7% |  |
| O=C(Nc1cccc(Nc2cc(-c3cccnc3)nc3sccc23)c1)c1cccc(C(F)(F)F)c1 [VIII-a-1] | 2.71 µM | ++ | ++ | ++ | ++ |  |  |
| Cc1ccc(NC(=O)c2cccc(C(F)(F)F)c2)cc1Nc1cc(-c2ccncc2)c2cc[nH]c2n1 [I-c-11] | 6.13 µM | ++ | ++ | ++ | ++ |  |  |
| Cc1ccc(C(=O)Nc2cccc(C(F)(F)F)c2)cc1Nc1nc(-c2ccncc2)nc2cc[nH]c12 [V-a-6] | 0.987 µM | ++ | ++ | ++ | ++ |  |  |
| Cc1ccnc(Nc2nc(-c3cccc(NC(=O)c4cccc(C(F)(F)F)c4)c3)nc3ccsc23)c1 [VII-a-18] | 2.56 µM | + | + | + | + |  |  |
| Cc1ccc(C(=O)Nc2cccc(C(F)(F)F)c2)cc1Nc1nc(-c2cccnc2)cn2ccnc12 [VI-a-6] |  | − |  | − |  |  | 11.3%^a |
| Cc1ccc(NC(=O)c2cccc(C(F)(F)F)c2)cc1Nc1cc(-c2ccncc2)nc2c1ccn2C [I-b-2] | 1.6 µM | − | − | ++ | ++ |  |  |
| Cc1ccc(C(=O)Nc2cccc(C(F)(F)F)c2)cc1Nc1nc(-c2cccnc2)nc2cc[nH]c12 [V-a-5] | 3.08 µM | +++ | +++ | ++ | ++ |  |  |
| O=C(Nc1cccc(C(F)(F)F)c1)c1cccc(Nc2cc(-c3ccncc3)nc3sccc23)c1 [VIII-a-6] | 6.32 µM | + | + | + | + |  |  |
| Cc1ccc(C(=O)Nc2cccc(C(F)(F)F)c2)cc1Nc1nc(-c2cccnc2)nc2[nH]ccc12 [II-a-2] |  | + | + | + | + | 43.4% |  |

| Structure (SMILES) | IC50 (JeKo-1 cells) | degree of vacuolation, 1 μM, 24 h (MDA-MB-231 cells) | degree of vacuolation, 1 μM, 48 h (MDA-MB-231 cells) | degree of vacuolation, 10 μM, 24 h (MDA-MB-231 cells) | degree of vacuolation, 10 μM, 48 h (MDA-MB-231 cells) | inhibition at 10 µM (JeKo-1 cells) | cell growth inhibition rate of compounds at 10 μM (JeKo-1 cells) |
| --- | --- | --- | --- | --- | --- | --- | --- |
| Cn1ncc2c(NCc3cccnc3)nc(-c3cccc(NC(=O)Nc4cccc(C(F)(F)F)c4)c3)nc21 [III-b-14] | 6.78 µM | + | + | + | + |  |  |
| Cc1ccc(NC(=O)c2cccc(C(F)(F)F)c2)cc1Nc1cc(-c2cccnc2)c2cc[nH]c2n1 [I-c-12] | 1.1 µM | +++ | +++ | +++ | +++ |  |  |
| Cc1ccnc(Nc2nc(-c3cccc(NC(=O)c4ccc(N)nc4)c3)nc3ccsc23)c1 [VII-a-19] | 1.52 µM | − | − | − | − |  |  |
| Cc1ccc(C(=O)Nc2cccc(C(F)(F)F)c2)cc1Nc1nc(-c2cccnc2)cn2ccnc12 [VI-a-2] |  | + | + | + | + |  | 38.6%^a |
| Cc1ccc(C(=O)Nc2cccc(C(F)(F)F)c2)cc1Nc1nc(-c2ccncc2)nc2[nH]cnc12 [IV-a-2] |  | + | ++ | + | ++ | 19% |  |
| Cc1ccc(NC(=O)c2cccc(C(F)(F)F)c2)cc1Nc1nc(-c2cccnc2)nc2[nH]ccc12 [II-a-1] |  |  | + |  | + | 17.3% |  |
| Cc1ccc(Nc2nc(-c3cccc(NC(=O)c4ccc(N)nc4)c3)nc3ccsc23)cn1 [VII-a-16] | 0.824 µM | + | + | + | + |  |  |
| Cc1ccc(C(=O)Nc2cccc(C(F)(F)F)c2)cc1Nc1nc(-c2cccnc2)nc2c1ccn2C [II-b-2] | 2.85 µM | + | + | + | + |  |  |
| Cc1ccc(NC(=O)c2cccc(C(F)(F)F)c2)cc1Nc1nc(-c2cccnc2)nc2c1ncn2C [IV-b-7] |  | + | + | + | + | 19.1% |  |
| Cc1ccc(C(=O)Nc2cccc(C(F)(F)F)c2)cc1Nc1nc(-c2ccncc2)nc2ccn(C)c12 [V-b-4] |  | ++ | ++ | ++ | ++ | 17.2% |  |
| Cc1ccc(C(=O)Nc2cccc(C(F)(F)F)c2)cc1Nc1cc(-c2ccncc2)nc2sccc12 [VIII-a-8] | 2 µM | − | ++ | − | ++ |  |  |
| Cc1ccc(C(=O)Nc2cccc(C(F)(F)F)c2)cc1Nc1nc(-c2cccnc2)nc2c1ncn2C [IV-b-2] | 7.12 µM | + | + | + | + |  |  |
| Cc1ccc(Nc2nc(-c3cccc(NC(=O)c4cccc(C(F)(F)F)c4)c3)nc3ccsc23)cn1 [VII-a-15] | 2.67 µM | + | + | + | + |  |  |
| Cc1ccc(NC(=O)c2cccc(C(F)(F)F)c2)cc1Nc1nc(-c2cccnc2)nc2ccn(C)c12 [V-b-1] |  | ++ | ++ | ++ | ++ | 12.3% |  |
| Cc1ccc(NC(=O)c2cccc(C(F)(F)F)c2)cc1Nc1nc(-c2cccnc2)nc2[nH]cnc12 [IV-a-1] |  | + | ++ | + | ++ | 18.3% |  |
